# Reference: the supplement of paper PMC10331698
# ± gives the standard deviation of the averaged measurements.
# Columns and labels:
# Assay in all cases: level (log10 ratio to DMSO vehicle control); higher = higher biomarker level / cell amount than vehicle control
# Settings in all cases: in DMSO
# [1] = compound: C=C(C)C(=O)OCCC(F)(F)C(F)(F)C(F)(F)C(F)(F)C(F)(C(F)(F)F)C(F)(F)F [(Perfluoro-5-methylhexyl)ethyl 2-methylprop-2-enoate]
# Protocol: (§1)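 BioMAP Diversity Plus panel of 12 human primary cell co-culture systems (3C, 4H, LPS, SAg, BT, BF4T, BE3C, CASM3C, HDF3CGF, KF3CT, MyoF, Mphg). Compounds were added 1 h before stimulation and left for 24 h (MyoF 48 h; BT 72 h for soluble read-outs or 6 d for IgG). Biomarkers were read by ELISA, cytotoxicity by SRB, PBMC viability and proliferation by Alamar Blue. Each well value was divided by the mean of 8 DMSO control wells on the same plate and log10 transformed; duplicate blinded samples were tested at 4 concentrations.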
# [2] = compound: C=CC(F)(F)C(F)(F)C(F)(F)C(F)(F)C(F)(F)C(F)(F)C(F)(F)C(F)(F)C=C [1,8-Divinylperfluorooctane]
# Protocol: as §1
# [3] = compound: FC(F)(F)C(F)(F)C(F)(F)C(F)(F)C(F)(F)CCI [1-Iodo-1H,1H,2H,2H-perfluoroheptane]
# Protocol: as §1
# [4] = compound: FC(F)C(F)(F)COCC1CO1 [((2,2,3,3-Tetrafluoropropoxy)methyl)oxirane]
# Protocol: as §1
# Pentafluoropropionamide = compound: NC(=O)C(F)(F)C(F)(F)F [Pentafluoropropionamide]
# Protocol: as §1
# Perfluoropropanoic acid = compound: O=C(O)C(F)(F)C(F)(F)F [Perfluoropropanoic acid]
# Protocol: as §1
Test System,level (log10) ([1]; 6700 nM),level (log10) ([1]; 20000 nM),level (log10) ([2]; 6700 nM),level (log10) ([2]; 20000 nM),level (log10) ([3]; 6700 nM),level (log10) ([3]; 20000 nM),level (log10) ([3]; 60000 nM),level (log10) ([4]; 6700 nM),level (log10) ([4]; 20000 nM),level (log10) ([4]; 60000 nM),level (log10) (Pentafluoropropionamide; 6700 nM),level (log10) (Pentafluoropropionamide; 20000 nM),level (log10) (Pentafluoropropionamide; 60000 nM),level (log10) (Perfluoropropanoic acid; 6700 nM),level (log10) (Perfluoropropanoic acid; 20000 nM),level (log10) (Perfluoropropanoic acid; 60000 nM)
BF4T:uPA,-0.0295 ± 0.0064,-0.063 ± 0.0014,-0.0045 ± 0.0064,-0.0095 ± 0.012,0.0125 ± 0.033,0.005 ± 0.0071,0.0135 ± 0.0064,-0.003 ± 0.0028,-0.0005 ± 0.013,0.0135 ± 0.036,-0.013 ± 0.0085,-0.0075 ± 0.0078,0.0045 ± 0.018,-0.0035 ± 0.033,0.0105 ± 0.037,0.019 ± 0.033
SAg:Proliferation,0.011 ± 0.0085,0.009 ± 0.018,0.0155 ± 0.0064,0.0455 ± 0.013,-0.014 ± 0.035,-0.0145 ± 0.0064,-0.15 ± 0.054,-0.0075 ± 0.019,-0.02 ± 0.03,-0.0095 ± 0.0092,0.0045 ± 0.016,0.0135 ± 0.022,0.045 ± 0.0028,-0.0205 ± 0.043,-0.0085 ± 0.019,-0.0025 ± 0.07
LPS:CD141/Thrombomodulin,0.0055 ± 0.0092,-0.0345 ± 0.021,-0.0025 ± 0.00071,0.011 ± 0.021,-0.016 ± 0.0085,-0.014 ± 0.0099,-0.032 ± 0.0014,0.0055 ± 0.016,-0.003 ± 0.03,-0.049 ± 0.013,-0.0385 ± 0.00071,-0.005 ± 0.0028,-0.01 ± 0.0014,-0.003 ± 0.027,-0.007 ± 0.0057,0.013 ± 0.0057
SAg:CD40,0 ± 0.0071,-0.0275 ± 0.028,0.0085 ± 0.015,-0.022 ± 0.0028,0.0015 ± 0.0078,-0.0095 ± 0.0021,-0.011 ± 0.011,-0.0095 ± 0.018,-0.009 ± 0.0057,-0.0015 ± 0.0078,-0.041 ± 0.0071,-0.0195 ± 0.015,-0.0445 ± 0.0021,-0.045 ± 0.016,-0.0335 ± 0.044,-0.009 ± 0.031
BT:Secreted IgG,-0.0085 ± 0.044,-0.023 ± 0.0085,0.022 ± 0.0071,0.0255 ± 0.019,-0.006 ± 0.016,-0.002 ± 0.062,-0.0185 ± 0.08,0.0295 ± 0.047,-0.003 ± 0.071,-0.0065 ± 0.098,0.0065 ± 0.039,-0.0075 ± 0.046,0.0155 ± 0.0064,0.036 ± 0.028,0.03 ± 0.0057,-0.004 ± 0.057
BE3C:CD87/uPAR,0.0035 ± 0.016,0.0165 ± 0.035,0.0045 ± 0.021,-0.029 ± 0.025,0.006 ± 0.02,0.002 ± 0.0057,0.027 ± 0.0042,-0.016 ± 0.018,-0.017 ± 0.028,-0.0135 ± 0.022,0.0115 ± 0.042,-0.025 ± 0.0057,-0.0145 ± 0.022,-0.018 ± 0.0085,-0.026 ± 0.0085,0.01 ± 0.0014
BF4T:CD106/VCAM-1,-0.012 ± 0.02,0.0325 ± 0.036,0.0015 ± 0.016,0.0065 ± 0.018,-0.029 ± 0.0071,-0.0615 ± 0.0064,-0.11 ± 0.012,0.003 ± 0.0028,-0.003 ± 0.0057,0.0185 ± 0.043,-0.001 ± 0.018,-0.0045 ± 0.0021,-0.016 ± 0.0071,-0.021 ± 0.065,0.003 ± 0.072,0.026 ± 0.095
BF4T:IL-1alpha,-0.0155 ± 0.021,-0.014 ± 0.03,-0.0175 ± 0.0021,0.01 ± 0.025,0.0015 ± 0.022,-0.001 ± 0.011,0.0065 ± 0.0092,-0.0025 ± 0.00071,-0.009 ± 0.0099,0.021 ± 0.03,-0.0165 ± 0.0021,-0.016 ± 0.021,0.0065 ± 0.021,-0.0325 ± 0.005,0.002,0.013 ± 0.03
4H:SRB,0.002 ± 0.013,-0.0025 ± 0.019,0.002 ± 0.0057,0.0125 ± 0.00071,-0.004 ± 0.0057,-0.01 ± 0.0057,-0.008 ± 0.013,-0.015 ± 0.0085,-0.003 ± 0.0042,-0.012 ± 0.027,-0.0055 ± 0.021,-0.0095 ± 0.0078,-0.0135 ± 0.016,0 ± 0.0028,-0.002 ± 0.0071,0.0095 ± 0.0092
SAg:CD69,-0.0095 ± 0.015,-0.0335 ± 0.033,-0.042 ± 0.021,-0.012 ± 0.035,-0.025 ± 0.011,-0.037 ± 0.0042,-0.036 ± 0.011,-0.0225 ± 0.0078,-0.018 ± 0.014,0 ± 0.03,-0.026 ± 0.013,-0.0385 ± 0.018,-0.026 ± 0.0071,-0.0175 ± 0.005,-0.019 ± 0.0042,-0.008 ± 0.023
LPS:CD62E/E-Selectin,0.006 ± 0.0099,0.0095 ± 0.012,-0.0215 ± 0.029,-0.023 ± 0.018,0.0045 ± 0.012,0.004 ± 0.0042,-0.0005 ± 0.0064,0.012 ± 0.02,0.0055 ± 0.033,0.0145 ± 0.033,-0.0265 ± 0.025,-0.0185 ± 0.028,-0.004 ± 0.0071,-0.007 ± 0.0014,-0.0195 ± 0.023,-0.0025 ± 0.0078
LPS:CXCL8/IL-8,0.006 ± 0.045,0.016 ± 0.047,-0.0055 ± 0.005,0.0145 ± 0.0078,0.0065 ± 0.03,0.0135 ± 0.005,0.0145 ± 0.0021,-0.035 ± 0.038,-0.024 ± 0.031,0.004 ± 0.0014,-0.009 ± 0.013,-0.0115 ± 0.00071,0.0285 ± 0.037,-0.013 ± 0.02,-0.001 ± 0.0085,-0.002 ± 0.0071
BE3C:CXCL11/I-TAC,0.005 ± 0.0099,0.0105 ± 0.0092,0.011 ± 0.02,-0.002 ± 0.0014,0.0075 ± 0.013,0.0005 ± 0.016,0.0005 ± 0.018,0.0005 ± 0.054,-0.008 ± 0.033,0.0225 ± 0.037,-0.0065 ± 0.0092,-0.0055 ± 0.018,-0.006 ± 0.0071,0.007 ± 0.0071,0.013 ± 0.014,0.029 ± 0.033
BF4T:CD90,0.011,0 ± 0.0085,0.0025 ± 0.0064,-0.002 ± 0.0071,0.0025 ± 0.00071,-0.001 ± 0.0028,0.013 ± 0.0028,-0.006 ± 0.03,0.004 ± 0.0057,0.014 ± 0.016,-0.0025 ± 0.0064,0.0005 ± 0.0064,-0.0045 ± 0.015,-0.003 ± 0.014,0.003 ± 0.0014,0 ± 0.016
LPS:SRB,-0.001 ± 0.0028,-0.0085 ± 0.0021,-0.005 ± 0.0057,0.013 ± 0.0099,-0.006 ± 0.0014,-0.009 ± 0.014,-0.005 ± 0.0071,-0.0145 ± 0.0035,-0.005,-0.0105 ± 0.0092,0 ± 0.014,-0.006 ± 0.0014,-0.0105 ± 0.00071,-0.0125 ± 0.00071,-0.0035 ± 0.013,-0.0065 ± 0.0064
SAg:CD38,-0.011 ± 0.016,-0.0055 ± 0.015,-0.009 ± 0.016,-0.0055 ± 0.0092,-0.012 ± 0.0042,0.007 ± 0.0042,-0.0125 ± 0.016,-0.007 ± 0.0014,-0.006 ± 0.011,0.002 ± 0.023,-0.026 ± 0.02,-0.0125 ± 0.028,0.0005 ± 0.0064,0.0015 ± 0.043,0.023 ± 0.0085,0.029 ± 0.055
